≈ marks a conversion by molar mass, not a printed value.
Tests used:
[1] = CoQ10 solubility at 37° C. in water and in placebo AQUA Q10 formulation; format: physicochemical
Procedure: CoQ10 solubility was measured at 37° C. in water as well as in a placebo AQUA Q10 formulation, i.e., Incromega™ E3322, Capmul™ CMC C-8, and Cremophor™ EL at weight ratio of 40/25/20.

[2] = CoQ10 solubility/concentration in non-aqueous formulations at elevated temperature; format: physicochemical; settings: for solubility: organic solvent or mixture
Source text: While not intending to be bound to any theory, we posit that when a poorly water-soluble agent is incorporated into a porous carrier with narrow pores, it experiences strong geometric restrictions and large interfacial interactions with the porous matrix. […] Thus, absorbing a previously solubilized CoQ10 liquid formulation, for example, into the narrow pore channels of Fujicalin® (calcium hydrogen phosphate) inhibits re-crystallization and aggregation of CoQ10. This enables, to a large extent, even dispersion and distribution of pharmaceutically active forms of CoQ10 in solubilized form. After the Fujicalin® porous particulates dissolve in acidic gastric fluid, the SSS is released and the trapped SEF self-emulsifies in the fluid to form droplets of sufficiently small size, thereby facilitating absorption of CoQ10 cross the epithelial cells. Other porous particulates include silicon dioxide and magnesium aluminum metasilicate. Combinations may also be used.
CoQ10 in a concentration of >100 mg/ml in a non-aqueous formulation, preferably SEF, at a temperature above 25° C., preferably at or above 48° C. has been achieved.
The invention formulations solubilize CoQ10 at a concentration of >100 mg/ml at a temperature between 30° C. and 60° C., preferably not above 50° C. In addition, the nutrient/vitamin components readily dissolve in aqueous media, so that >75% of these components are released within an hour.

CoQ10 solubility in AQUA Q10 formulation relative to solubility in water [1]: over 400,000 times
solubility ([1]; placebo AQUA Q10 formulation, oil or lipid, placebo Incromega E3322/Capmul CMC C-8/Cremophor EL 40/25/20, read-out: CoQ10 solubility in AQUA Q10 formulation): 177 mg/mL (≈ 205 mM)
solubility ([1]; water, read-out: CoQ10 solubility in water): 0.0004 mg/mL (≈ 0.000463 mM)
solubility ([2]; invention formulations, temperature between 30° C. and 60° C., preferably not above 50° C., read-out: CoQ10 concentration solubilized by the invention formulations): > 100 mg/mL
solubility ([2]; non-aqueous formulations, elevated temperature close to its melting temperature (48° C.), read-out: solubility of CoQ10 in non-aqueous formulations): > 100 mg/mL
CoQ10 concentration in a non-aqueous formulation ([2]; preferably SEF, temperature above 25° C., preferably at or above 48° C.): > 100 mg/mL
SMILES: COC1=C(OC)C(=O)C(C/C=C(\C)CC/C=C(\C)CC/C=C(\C)CC/C=C(\C)CC/C=C(\C)CC/C=C(\C)CC/C=C(\C)CC/C=C(\C)CC/C=C(\C)CCC=C(C)C)=C(C)C1=O [CoQ10, Coenzyme Q10]

Reference: patent US9005608B2, “Stabilized solubility-enhanced formulations for oral delivery” (Adds Pharmaceuticals LLC, priority 2009, dated 2015)
